Results published in patent publication US20210130411A1, “CYCLIC HEXAPEPTIDES COMPOUNDS WITH ANTI-MALARIAL ACTIVITY” (priority 2018, published 2021).
Where two headings read alike, the source gives them in different places. Each block holds one molecule with its values, some of them ahead of it. Where a SMILES comes first, the peptide text is derived from it. [ ]: non-standard residue; d: D form. The star is where a group is joined. Trt = c1ccc(C(c2ccccc2)(c2ccccc2)*)cc1; Sar = CNCC(=O)O; tBu = CC(C)(C)*

How the values were obtained:
[1] = tested on: P. falciparum K1 (chloroquine-resistant strain); experiment: microbe, parasite or virus in culture
Experimental: For the in vitro study of the antimalarial activity against P. falciparum K1, this strain originating from Thailand that is resistant to chloroquine and pyrimethamine but sensitive to mefloquine was used. The cultures are naturally asynchronous (65-75% ring stage) and are maintained in continuous log phase growth in RPM11640 medium supplemented with 5% washed human A+erythrocytes, 25 mM HEPES, […] NaHCO3, and AlbuMAXII (lipid-rich bovine serum albumin) (GIBCO, Grand Island, N.Y.) (CM). All cultures and assays are conducted at 37° C. under an atmosphere of 5% CO2 and 5% 02, with a balance of N2.
For drug sensitivity assays, tock drug solutions are prepared in 100% DMSO (dimethylsulfoxide) at 20 mM. The compound is further diluted to the appropriate concentration using complete medium RPM11640 supplemented with 15 nM cold hypoxanthine and AlbuMAXII. Assays are performed in sterile 96-well microtitre plates, each plate contains […] of parasite culture (0.5% parasitemia, 2.5% hematocrit). Each drug is tested in triplicate and parasite growth is compared to control and blank (uninfected erythrocytes) wells. After 24 h of incubation at 37° C., 3.7 Bq of [3H]hypoxanthine is added to each well. Cultures are incubated for a further 24 h before they are harvested onto glass-fiber filter mats. The radioactivity is counted using a Wallac Microbeta 1450 scintillation counter. […] The percentage inhibition is calculated from comparison of blank and control wells, and EC50 values are calculated using Prism™. Screen. The K1 line is used. The compound is diluted threefold over 12 different concentrations with an appropriate starting concentration. The EC50 is determined by a sigmoidal dose-response analysis using Prism™. For each assay, the EC50 value for the parasite line is determined against the known antimalarials chloroquine and artesunate, plus other standard compounds appropriate for the assay.
(§1) were tested in vitro against the intraerythrocytic form of the parasite Plasmodium falciparum K1 (chloroquine-resistant strain) and Plasmodium falciparum 31D7 (chloroquine-sensitive strain). The selectivity index (SI) was determined as the ration between EC50 against murine macrophages or HepG2 cells and the EC50 against P. falciparum.

Plasmodium sp. = details: background statement, strain not stated; cited from earlier work
[2] = tested on: Plasmodium falciparum 3D7 (chloroquine-sensitive strain); experiment: microbe, parasite or virus in culture; format: cell-based
Experimental: For the in vitro study of the antimalarial activity against P. falciparum D7, two stock solutions were prepared: solution A (dilution of powder sample) at 20 mM and solution B at 1 mM (made by dilution of solution A). Next, the compounds were diluted 100-fold (drug solution=10 μM), then, suitable volume of drug solution was transferred in the SYBR GREEN assay plate (final concentration=10-0.15 μM). However, due to the high potency of the samples, the initial concentration was reduced in order to determine the EC50 values. The assay condition included: hematocrit at 2%, initial parasitemia 0.5% and artesunate and pyrimethamine were used as positive control. The fluorescence of each well is measured. The EC50 value of each compound was assessed in at least two independent experiments.
as §1, with “falciparum. In the following Table 1 is shown the results of the EC50 obtained for each of the tested compounds against P. falciparum K1 (P. f. K1) and P. falciparum 3D7 (P. f. 3D7) and the SI calculated.” for “falciparum.”

P. falciparum 3D7 strain = experiment: Killing rates assay, P. falciparum 3D7 intraerythrocytic form; format: cell-based, Plasmodium falciparum
Experimental: The assay was performed in P. falciparum 3D7 strain in its intraerythrocytic form. […] Each compound was renewed (washing the parasites and adding culture media and the compound again) after the first 24 hours of treatment.

[3] = tested on: murine macrophages or HepG2 cells; experiment: Selectivity index: EC50 against murine macrophages or HepG2 cells over EC50 against P. falciparum; format: cell-based; details: ratio of EC50 against murine macrophages or HepG2 cells to EC50 against P. falciparum
Experimental: as §1, with “falciparum. In the following Table 1 is shown the results of the EC50 obtained for each of the tested compounds against P. falciparum K1 (P. f. K1) and P. falciparum 3D7 (P. f. 3D7) and the SI calculated.” for “falciparum.”

P. berghei = experiment: Anti-malarial activity in vivo in mice inoculated with P. berghei; details: 50 mg/Kg oral, 3 consecutive days
[4] = Plasma pharmacokinetics after single oral administration; format: in vivo, male Swiss Albino mice
Experimental: The objective of this study was to investigate the plasma pharmacokinetics of the compound CF-88 in male Swiss Albino mice following a single oral administration. Nine animals were used in this study as Group 1 (PO: 50 mg/kg). Animals were administered with solution formulation of CF-88 in 3% DMSO and RPMI medium via oral route at 50 mg/kg. The blood samples were collected from set of three mice at each time point in labeled micro centrifuge tube containing K2EDTA solution as anticoagulant at 0.25, 0.5, 1, 2, 4, 6, 8, 12 and 24 hr. Plasma samples were separated by centrifugation of whole blood and stored below −70±10° C. until bioanalysis. All samples were processed for analysis by protein precipitation using acetonitrile and analyzed with fit-for-purpose LC-MS/MS method (LLOQ=5.16 ng/mL). Pharmacokinetic parameters were calculated using the non-compartmental analysis tool of Phoenix WinNonlin® (Version 7.0).
For the preparation of the oral formulation accurately weighed 19.93 mg of compound for PO dosing was added in a labeled bottle. The volume 0.112 mL of DMSO was added and vortexed. The volume 3.617 mL of RPMI medium was added and vortexed. The final formulation (5 mg/mL) was vortexed for 2 minutes to get finely suspended formulation.
After preparation of formulations, a volume of 200 μL was aliquoted for analysis. […] Formulations were prepared freshly prior to dosing.
Blood samples (approximately 60 μL) were collected from retro-orbital plexus of three mice at 0.25, 0.5, 1, 2, 4, 6, 8, 12 and 24 hr. Samples were collected into labeled micro-tubes, containing K2EDTA solution (20% K2EDTA solution) as an anticoagulant. Plasma was immediately harvested from the blood by centrifugation at 4000 rpm for 10 min at 4±2° C. and stored below −70° C. until bioanalysis.

P. b. (liver st) = experiment: Biological activity in vitro against the hepatic form of the parasite; format: cell-based, P. berghei
[5] = Plasmodium falciparum, K1, read-out: EC50 P. f. K1
[6] = 0 hrs of treatment, compound at 10×EC50
[7] = 24 hrs of treatment, compound at 10×EC50 (CF89 500 nM, SP79 30 nM)
[8] = 48 hrs of treatment, compound renewed after 24 hrs, 10×EC50
[9] = read-out: EC50 P. f. K1, intraerythrocytic form, chloroquine-resistant strain
[10] = male, Swiss Albino, mouse, in vivo, po, 50 mg/kg
[11] = male, Swiss Albino, mouse, plasma, PO 50 mg/kg, 12 hrs after administration, read-out: plasma concentration at 12 hrs
[12] = intraerythrocytic form, chloroquine-sensitive strain, read-out: EC50 P. f. 3D7

EC50 [1, 5]: 20 nM
Compound: C[C@@H]1CC[C@H]2[C@@H](C)C(=O)O[C@@H]3O[C@@]4(C)CC[C@@H]1[C@]32OO4 [Artemisinine, reference compound]
EC50 (Plasmodium sp.): 20 nM

Compound: C[C@H]1[C@H](OC(=O)CCC(=O)O)O[C@@H]2O[C@@]3(C)CC[C@H]4[C@H](C)CC[C@@H]1[C@@]24OO3 [Artesunate]
EC50 [1, 5]: 3 nM
EC50 (Plasmodium sp.): 5 nM
EC50 ([2]; Plasmodium falciparum, 3D7, read-out: EC50 P. f. 3D7): 5 nM
Survival % (P. falciparum 3D7 strain; [6]): 100%
Survival % (P. falciparum 3D7 strain; [7]): 10.01%
Survival % (P. falciparum 3D7 strain; [8]): 8.59%

Compound: O=C1C(O)=C([C@H]2CC[C@H](c3ccc(Cl)cc3)CC2)C(=O)c2ccccc21 [Atovaquone]
Survival % (P. falciparum 3D7 strain; [6]): 100%
Survival % (P. falciparum 3D7 strain; [7]): 56.55%
Survival % (P. falciparum 3D7 strain; [8]): 32.02%

EC50 ([2]; 3D7 (chloroquine-sensitive strain)): 3.8 nM
Compound: CN1CC(=O)N[C@@H](CSC(c2ccccc2)(c2ccccc2)c2ccccc2)C(=O)N(C)CC(=O)N[C@@H](CSC(c2ccccc2)(c2ccccc2)c2ccccc2)C(=O)N(C)CC(=O)N[C@@H](COC(C)(C)C)C1=O [CF87, Cycle-NMe-Gly-L-Cys(Trt)-NMe-Gly-L-Ser(^t-Bu)-NMe-Gly-L-Cys(Trt)] (cyclo(C(Trt)[Sar]C(Trt)[Sar]S(tBu)[Sar]))
SI [3]: > 12500

Compound: C[C@@H](OC(C)(C)C)[C@@H]1NC(=O)CN(C)C(=O)[C@H](CSC(c2ccccc2)(c2ccccc2)c2ccccc2)NC(=O)CNC(=O)[C@H](CSC(c2ccccc2)(c2ccccc2)c2ccccc2)NC(=O)CN(C)C1=O [CF88, Cycle-NMe-Gly-L-Thr(^t-Bu)-NMe-Gly-L-Cys(Trt)-Gly-L-Cys(Trt)] (cyclo(C(Trt)GC(Trt)[Sar]T(tBu)[Sar]))
EC90 ([1]; against P. falciparum K1): 1 nM
EC50 [1, 9]: 0.008 nM
Days of survival (P. berghei): 25 ± 7 days
Parasitemia (P. berghei; Day 5): 0.9 ± 0.7
Parasitemia (P. berghei; Day 7): 1.7 ± 0.3
Parasitemia (reduction %) (P. berghei; Day 7): (46 ± 10%)
Parasitemia (P. berghei; Day 9): 6 ± 1
Parasitemia (reduction %) (P. berghei; Day 9): (33 ± 10%)
clinical signs after oral administration ([4]; PO 50 mg/kg single dose): all animals were normal without any clinical signs
t1/2 ([4]; PO 50 mg/kg, plasma, 4, 6, 8 and 12 hr time points considered (r^2 = 0.7325)): 4.93 h
detected in plasma up to ([4]; PO 50 mg/kg, time after administration): 12 h
detection in plasma at 24 hrs ([4]; PO 50 mg/kg, LLOQ 5.16 ng/mL): no detection
AUCinf [4, 10]: 390.71
AUClast [4, 10]: 314.79
Cmax [4, 10]: 61.13 ng/mL
tmax [4, 10]: 2 h
level at 12 h [4, 11]: 10.8 ng/mL
level at time molar at 12 h [4, 11]: 10 nM
SI [3]: >1 × 10^6
EC50 [2, 12]: 0.25 nM

Compound: C[C@@H](OC(C)(C)C)[C@@H]1NC(=O)CNC(=O)[C@H](CSC(c2ccccc2)(c2ccccc2)c2ccccc2)NC(=O)CNC(=O)[C@H](CSC(c2ccccc2)(c2ccccc2)c2ccccc2)NC(=O)CN(C)C1=O [CF90, Cycle-L-Thr(^tBu)-NMe-Gly-L-Cys(Trt)-Gly-L-Cys(Trt)-Gly] (cyclo(C(Trt)GC(Trt)GT(tBu)[Sar]))
EC50 [1, 9]: 0.13 nM
SI [3]: >1 × 10^5
EC50 [2, 12]: 1.4 nM

Compound: CN1CC(=O)N[C@@H](CSC(c2ccccc2)(c2ccccc2)c2ccccc2)C(=O)N(C)CC(=O)N[C@@H](CSC(c2ccccc2)(c2ccccc2)c2ccccc2)C(=O)N(C)CC(=O)N[C@@H](CCC(=O)O)C1=O [CFfs49.4, Cycle-NMe-Gly-L-Cys(Trt)-NMe-Gly-L-Cys(Trt)-NMe-Gly-L-Glu] (cyclo(C(Trt)[Sar]C(Trt)[Sar]E[Sar]))
EC50 [1, 9]: 0.2 nM
Days of survival (P. berghei): 23 ± 4 days
Parasitemia (P. berghei; Day 5): 1.1 ± 0.2
Parasitemia (P. berghei; Day 7): 1.6 ± 0.2
Parasitemia (reduction %) (P. berghei; Day 7): (46 ± 6%)
Parasitemia (P. berghei; Day 9): 4.8 ± 0.5
Parasitemia (reduction %) (P. berghei; Day 9): (50 ± 4%)
SI [3]: >20000
EC50 [2, 12]: 12 nM

Compound: COC(=O)CC[C@@H]1NC(=O)CN(C)C(=O)[C@H](CSC(c2ccccc2)(c2ccccc2)c2ccccc2)NC(=O)CN(C)C(=O)[C@H](CSC(c2ccccc2)(c2ccccc2)c2ccccc2)NC(=O)CN(C)C1=O [CFfs49.5] (cyclo(C(Trt)[Sar]C(Trt)[Sar]E(OMe)[Sar]))
SI [3]: >40000
EC50 [2, 12]: 5.2 nM

Compound: CCN(CC)CCCC(C)Nc1ccnc2cc(Cl)ccc12 (stereo not drawn) [Chloroquine, reference compound]
EC50 [1, 5]: 470 nM
Days of survival (P. berghei): >30 days
Parasitemia (reduction %) (P. berghei; Day 5 (96 hrs after infection)): (100%)
Parasitemia (P. berghei; Day 5): 0
Parasitemia (P. berghei; Day 7): 0
Parasitemia (reduction %) (P. berghei; Day 7): (100%)
Parasitemia (P. berghei; Day 9): 0
Parasitemia (reduction %) (P. berghei; Day 9): (100%)
Survival % (P. falciparum 3D7 strain; [6]): 100%
Survival % (P. falciparum 3D7 strain; [7]): 14.13%
Survival % (P. falciparum 3D7 strain; [8]): 7.04%

EC50 ([2]; Plasmodium falciparum, 3D7, intraerythrocytic form, chloroquine-sensitive strain, read-out: EC50 P. f. 3D7): 31 nM
Compound: CCc1nc(N)nc(N)c1-c1ccc(Cl)cc1 [Pyrimethamine]
Survival % (P. falciparum 3D7 strain; [6]): 100%
Survival % (P. falciparum 3D7 strain; [7]): 53.52%
Survival % (P. falciparum 3D7 strain; [8]): 9.59%

Compound: C[C@@H](OC(C)(C)C)[C@@H]1NC(=O)CN(C)C(=O)[C@H](CSC(c2ccccc2)(c2ccccc2)c2ccccc2)NC(=O)CN(C)C(=O)[C@H](CSC(c2ccccc2)(c2ccccc2)c2ccccc2)NC(=O)CN(C)C1=O [SP79, Cycle-NMe-Gly-L-Thr(^t-Bu)-NMe-Gly-L-Cys(Trt)-NMe-Gly-L-Cys(Trt)] (cyclo(C(Trt)[Sar]C(Trt)[Sar]T(tBu)[Sar]))
EC50 [1, 9]: 0.7 nM
EC50 (P. b. (liver st)): 18.6 nM
SI [3]: >140000
EC50 [2, 12]: 1 nM
Survival % (P. falciparum 3D7 strain; [6]): 100%
Survival % (P. falciparum 3D7 strain; [7]): 83.74%
Survival % (P. falciparum 3D7 strain; [8]): 57.48%
